Consider twelve compounds from patent publication US8343945B2, “Carriers, formulations, methods for formulating unstable active agents for external application and uses thereof” (Foamix Ltd., priority 2007, dated 2013).

For data set [1] the following is noted: cited from earlier work.
For data set [2] the following is noted: powder for IV administration reconstituted with sterile water for injection; cited from earlier work.
For data set [3] the following is noted: cited from earlier work. This is another data set of the same source.
The text on data set [4]: In one or more embodiments of the present disclosure, the foamable composition includes a potent solvent, in addition to or in place of one of the hydrophobic solvents, polar solvents or emollients of the composition. A potent solvent is a solvent other than mineral oil that solubilizes a specific active agent substantially better than a hydrocarbon solvent such as mineral oil or petrolatum.

Data set [5] in a line: Doxycycline Hyclate compatibility test with excipients. In kind it is physicochemical. Particulars: for Compatibility with Doxycycline Hyclate: Summary, compatibility tested after the storage for up to 3 weeks. The method, then:
Different compositions of hydrophilic and hydrophobic solvents containing Doxycycline Hyclate (Set I and Set II) and Doxycycline Monohydrate (Set III) were prepared by weighing the antibiotic in a glass vial and shaking overnight with each solvent investigated.
Group II included Doxycycline Hyclate mixed with various vehicles with addition of antioxidants like alpha tocopherol, butylated hydroxytolyene (BHT), ascorbic acid.

The nature of data set [6]: Doxycycline Monohydrate compatibility test with excipients. In kind it is physicochemical. Particulars: for Compatibility with Doxycycline Monohydrate: Summary, compatibility tested after the storage for up to 3 weeks. The method, then:
Different compositions of hydrophilic and hydrophobic solvents containing Doxycycline Hyclate (Set I and Set II) and Doxycycline Monohydrate (Set III) were prepared by weighing the antibiotic in a glass vial and shaking overnight with each solvent investigated. Mixtures of Doxycycline salts 1.04% w/w with solid excipients were prepared in a similar way as for Minocycline HCl.
A similar compatibility test was performed on another form of Doxycycline-Doxycycline Monohydrate. Table 17b and Table 18.

Data set [7] can be described thus: Minocycline in hydrophilic vehicles dried with Magnesium Sulphate. In kind it is physicochemical. Conditions: vehicle dried by the Magnesium Sulfate procedure. The method, then:
A special procedure for drying of water residues was developed. Magnesium Sulphate was added to the glass beaker filled with one of the hydrophilic vehicles. The mixture was stirred during overnight and centrifuged the following morning. Clear supernatant was collected in a separate vessel and stored in a dessicator.
The following were tested using the above procedure: mixtures of Minocycline with PEG 200, PEG 400, glycerol, prolylene glycol, polyethylene glycol.

Data set [8] in a line: Minocycline HCl compatibility tests with excipients (colour change, HPLC assay). In kind it is physicochemical. Particulars: for Compatibility with Minocycline HCL: Summary, compatibility tested after the storage for up to 3 weeks. The method, then: About 0.5 g foam or pre-foam formulation is dissolved with diluent (65% phosphate buffer: 35% Acetonitrile (ACN)) in a 25 mL volumetric flask. The sample is shaken […] on an inverted shaker stand for 10 min at room temperature. The resulting suspension is centrifuged for 5 minutes at 4000 rpm. The supernatant is separated by vacuum pump and filtered thereafter through a 0.45 μm PTFE+GL filter. The first few drops of the filtrate are discarded. The resultant clear solution layer is analyzed by HPLC using columnRP-8. The content of MCH is calculated against an MCH standard 0.4 mg/mL (concentration). The content of 4-epiminocycline is calculated against MCH standard 0.02 mg/mL (concentration).
Color is tested by visual observation and in particular by comparison to “Pantone® formula guide solid uncoated” colors. […] Minocycline changes color to orange/greenish with oxidation or complexation. These oxidized colors are not desirable. Colors such as 609U/608U/610U are indicative of degradation by the tetracycline antibiotic.
For convenience the excipients were divided into four different groups (I-IV).
Different compositions of hydrophilic and hydrophobic solvents containing minocycline HCl were prepared by weighing the antibiotic in a glass vial and shaking overnight with each solvent investigated (Group I and II).
Mixtures of Minocycline HCl with solid excipients like titanium dioxide, stearyl alcohol, myristyl alcohol etc were prepared by suspending Minocycline HCl in oil with stirring and then adding the solid ingredient as a powder with stirring at room temperature (Group III an IV).
Oxidation of minocycline after the storage at various temperatures was detected by color change. Assay for content of the active pharmaceutical ingredient (API) and degradation product (4-epiminocycline) was determined in some samples.
A series of experiments were performed to evaluate which mixture of components/ingredients were compatible or incompatible with minocycline. Each component or combinations of components were mixed with either 1.1% or 2.2% Minocycline HCl. The glass vials containing the formulations were wrapped in aluminum—and were subjected to a range of temperatures 25° C.; 30° C.; 40° C.; 50 C; for between one week to about 3 weeks. The best results are shown as “compatible no oxidation”.

The mark [9] stands for this setting: waterless medium with alpha-tocopherol and ascorbic acid.

Like-named read-outs stand apart in the source and are kept apart here.

As for Doxycycline hyclate, the “IV solution stable for” value in data set [1] (0.1-1 mg/mL in 0.9% sodium chloride or 5% dextrose, 25° C.) was 48 h; in data set [1] (0.1-1 mg/mL in Ringer's, 10% invert sugar, Normosol or Plasma-Lyte in dextrose, room temperature), 12 h; in data set [1] (2-8° C., protected from direct sunlight and artificial light), 72 h. In addition, the “IV solution must be infused within” value in data set [1] (0.1-1 mg/mL in lactated Ringer's injection or 5% dextrose in lactated Ringer's) is not above 6 h. The pH of solution in data set [2] was 1.8-3.3. Moreover, in data set [3], the Solubility in alcohol result is given as “slightly soluble”. Also, the “Solubility in solutions of alkali hydroxides and carbonates” value in data set [3] (solutions of alkali hydroxides and carbonates) is “soluble”. Moreover, the Solubility in water entry in data set [3] is “soluble”.

With `CC(=O)N1CCN(c2ccc(OCC3COC(Cn4ccnc4)(c4ccc(Cl)cc4Cl)O3)cc2)CC1` (centres unmarked) [Ketoconazole], in data set [4], the “Solubility in dimethyl isosorbide” value is given as “more than 1%”, the Solubility in glycofurol entry was “more than 1%”, the “Solubility in mineral oil” value is less than 0.01% and the “Solubility in propylene glycol” value is reported as “more than 1%”.

For the compound `CCCCC(=O)O[C@]1(C(=O)CO)[C@@H](C)C[C@H]2[C@@H]3CCC4=CC(=O)C=C[C@]4(C)[C@@]3(F)[C@@H](O)C[C@@]21C` [Betamethasone valerate], in data set [4], the Solubility in glycofurol result was “more than 1%” and the “Solubility in mineral oil” value was less than 0.01%.

On to `C/C(=C\C(=O)OCCCCCCCCC(=O)O)C[C@@H]1OC[C@H](C[C@@H]2O[C@H]2[C@@H](C)[C@H](C)O)[C@@H](O)[C@H]1O` [Mupirocin], for which, in data set [4], the “Solubility in dimethyl isosorbide” value is “more than 1%”, the Solubility in glycofurol entry was “more than 1%”, the “Solubility in mineral oil” value is on record as less than 0.01% and the “Solubility in polyethylene glycol 400 (PEG 400)” value is “more than 1%”. In addition, the “Solubility in propylene glycol” value in data set [4] is reported as “more than 1%”.

For `Cc1cnc(NC(=O)C2=C(O)c3ccccc3S(=O)(=O)N2C)s1` [Meloxicam], the “Solubility in mineral oil” value in data set [4] was less than 0.001%.

In the case of `CC(=O)[C@H]1CC[C@H]2[C@@H]3CCC4=CC(=O)CC[C@]4(C)[C@H]3CC[C@]12C` [Progesterone], the “Solubility in mineral oil” value in data set [4] was less than 0.001%.

For the compound `C[C@H]1c2cccc(O)c2C(=O)C2=C(O)[C@]3(O)C(=O)C(C(N)=O)=C(O)[C@@H](N(C)C)[C@@H]3[C@@H](O)[C@@H]21` [doxycycline monohydrate], in data set [3], the Solubility in alcohol result is listed as “sparingly soluble” and the Solubility in water result is “very slightly soluble”.

`Cc1ncc([N+](=O)[O-])n1CCO` [Metronidazole]: in data set [4], the “Solubility in dimethyl isosorbide” value is “more than 1%” and the “Solubility in mineral oil” value is less than 0.01%.

Take `CC(O)CO` (centres unmarked) [Propylene glycol]: in data set [5], the “Compatibility with Doxycycline Hyclate” value was “No”. For the same compound, the “Oxidation of Doxycycline Hyclate despite added anti oxidants” value in data set [5] (setting [9]) is listed as “did not prevent the oxidation”. Besides, the “Compatibility with Doxycycline Monohydrate” value in data set [6] is recorded as “No”. For the same compound, the “Oxidation of Doxycycline Monohydrate despite added anti oxidants” value in data set [6] (setting [9]) is recorded as “did not prevent the oxidation”. The “Oxidation of Minocycline HCL after dissolution in dried vehicle” value in data set [7] is “oxidized quickly”. Besides, the “Compatibility with Minocycline HCL” value in data set [8] was “No”. The “Oxidation of Minocycline HCL despite added anti oxidants” value in data set [8] (setting [9]) is listed as “did not prevent the oxidation”.

On to `OCC(O)CO` [Glycerol], for which the “Compatibility with Doxycycline Hyclate” value in data set [5] was “No”. The “Compatibility with Doxycycline Monohydrate” value in data set [6] was “No”. In addition, the “Oxidation of Minocycline HCL after dissolution in dried vehicle” value in data set [7] is “oxidized quickly”. Moreover, in data set [8], the “Compatibility with Minocycline HCl” value is given as “intensive oxidation” and the “Compatibility with Minocycline HCL” value is on record as “No”.

Consider `OCCCCO` [Butylene glycol], for which the “Compatibility with Doxycycline Hyclate” value in data set [5] is “No”. The “Visual inspection after the storage at 25° C.” value in data set [6] (Mixtures of 1.04% w/w of Doxycycline Monohydrate with the ingredient, stored at 25° C. for two weeks) is “Orange solution”. In data set [6] (Mixtures of 1.04% w/w of Doxycycline Monohydrate with the ingredient, stored at 50° C. for two weeks), the “Visual inspection after the storage at 50° C.” value is given as “black solution”. Moreover, in data set [6], the “Compatibility with Doxycycline Monohydrate” value was “No”. In addition, in data set [8], the “Compatibility with Minocycline HCL” value is reported as “No”.

For `CCCC(=O)O[C@]1(C(=O)CO)CC[C@H]2[C@@H]3CCC4=CC(=O)CC[C@]4(C)[C@H]3[C@@H](O)C[C@@]21C` [Hydrocortisone butyrate], in data set [4], the Solubility in glycofurol result is listed as “more than 1%” and the “Solubility in mineral oil” value is recorded as less than 0.01%.
